pIC50: −log10 of the molar value.
How the values were obtained:
[1] = molecular target: human acetyl-CoA carboxylase 1 (hACC1) (Homo sapiens, UniProt Q13085); experiment: In vitro ACC enzyme inhibition (ADP fluorescence), hACC1; assay type: biochemical; settings: pre-incubated 15 minutes, 1 hour at room temperature
Protocol: (§1) To evaluate the ability of a test compound to inhibit acetyl-CoA carboxylase (ACC) by determining the IC50 value.
(§2) 1. Proteins: human acetyl-CoA carboxylase 1 (hACC1) and human acetyl-CoA carboxylase 2 (hACC2).
(§3) 3. Cofactors: acetyl-CoA and ATP (adenosine triphosphate)
(§4) 4. Activator: potassium citrate
(§5) 1. One-fold enzyme/substrate/cofactor was added to microwells of a well plate.
(§6) 2. According to an Acoustic technique, a solution of a compound in DMSO was added to the enzyme mixture, and the resulting mixture was pre-incubated for 15 minutes.
(§7) 3. ATP was added thereto to initiate the reaction, and the mixture was shaken uniformly.
(§8) 4. The mixture was incubated for 1 hour at room temperature.
(§9) 5. The reaction was quenched, and then incubated for additional 40 minutes.
(§10) 6. A detection reagent was added and the resulting mixture was incubated for 30 minutes.
(§11) 7. Fluorescence was tested.
(§12) 8. Data analysis was performed: based on the standard curve of ADP, the fluorescence signal was converted to the ADP product concentration and the enzyme activity was calculated. The curve was fitted using Graphpad Prism software to obtain the IC50 value.

[2] = molecular target: human acetyl-CoA carboxylase 2 (hACC2) (Homo sapiens, UniProt O00763); experiment: In vitro ACC enzyme inhibition (ADP fluorescence), hACC2; assay type: biochemical; settings: pre-incubated 15 minutes, 1 hour at room temperature
Protocol: as §1, §2, §3, §4, §5, §6, §7, §8, §9, §10, §11, §12

[3] = Pharmacokinetic evaluation in C57BL/6 mice; assay type: in vivo; settings: mouse, plasma, male C57BL/6 mice
Protocol: To test the pharmacokinetics of the compound in C57BL/6 mice Experimental materials:
C57BL/6 mice (male, 18 to 30 g, 7 to 9 weeks old, Shanghai Lingchang Biotechnology Co., Ltd.)
A clear solution of a test compound (0.5 mg/ml, 10% DMSO, 10% polyethylene glycol stearate, and 80% water) was injected via tail veins into 4 male C57BL/6 mice (overnight fasting, 7 to 9 weeks old), at a dose of 2.0 mg/kg. A suspension of the test compound or the clear solution thereof (1 mg/ml, 10% PEG400, 90% (0.5% methylcellulose+0.2% Tween 80)) was administered by gavage to 4 male C57BL/6 mice (overnight fasting, 7 to 9 weeks old), at a dose of 10 mg/kg.
Two mice were set in a group and subjected to blood sampling alternatively, with 4 to 5 blood sampling time points per mouse. At 0.0833 h (IV group only), 0.25 h, 0.5 h, 1.0 h, 2.0 h, 4.0 h, 6.0 h, 8.0 h, and 24 h after the mice were administered intravenously or by gavage, about 30 μL of blood was collected by saphenous vein puncture and placed in an anticoagulation tube supplemented with EDTA-K2, and the plasma was separated by centrifugation. The LC-MS/MS method was used to determine the blood drug concentration, and the WinNonlin™ Version 6.3 (Pharsight, Mountain View, Calif.) pharmacokinetic software was used to calculate the relevant pharmacokinetic parameters by the non-compartmental model linear logarithmic trapezoidal method.

[4] = system: HFD+CCl4-induced NASH mouse model; experiment: In vivo pharmacodynamic study in HFD+CCl4-induced NASH mouse model; settings: HFD+CCl4 mice; 0.5, 1, 3 mg/kg by gavage QD day 0 to day 27; reference I-181 3 mg/kg
Text: To study the effect of a compound on improving NASH and liver fibrosis in an HFD+CCl4 mouse model, with I-181 as a reference compound.
I-181 is an acetyl-CoA carboxylase inhibitor and is currently undergoing a phase II clinical study on non-alcoholic fatty liver disease (NAFLD). The HFD+CCl4 mouse model used in this study is an animal model that simulates human non-alcoholic fatty liver disease evolving into NASH. High-fat diet leads to fat accumulation and steatosis in liver cells; CCl4 (intraperitoneal injection, twice a week) simulates the “second hit” of liver injury.
The modeling for this experiment included two steps: high-fat diet feeding and CCl4 induction. Firstly, the mice were fed with high-fat diet to induce non-alcoholic fatty liver, and the mice weighing more than (>) 38 g were selected and continuously fed with high-fat diet, accompanied by the intraperitoneal injection of 25% CCl4 ([…], twice a week, for a total of four weeks). The day of starting CCl4 administration was set as day 0, and the time of starting CCl4 administration was set as hour 0. On the day of starting CCl4 administration, the administration by gavage was started, and the administration volume of each group was 5 mL/kg, once a day for 4 weeks (28 days). The injection time of CCl4 should be more than 4 hours apart from the first administration time point of the day. […]

[5] = Physical stability test of crystal form A as a solid under temperature, humidity and light (XRPD); assay type: physicochemical; settings: 60° C. and 92.5% RH for 5 and 10 days; ICH visible and UV light; 60° C./75% RH 1 and 2 months; 40° C./75% RH 1, 2 and 3 months
Protocol: In order to evaluate the solid stability of a crystal form A, the influencing factors (high temperature, high humidity and light), accelerated stability conditions and intermediate stability conditions were investigated for the crystal form A.
The crystal form A was placed under high temperature (60° C., closed dish) and high humidity (room temperature, 92.5% RH (relative humidity), wrapped in a parafilm with 5 to 10 small holes) for 5 days and 10 days. According to ICH conditions (visible illuminance reached 1.2E06 Lux·hrs, and ultraviolet illuminance reached 200 W·hrs/m^2), the crystal form A was placed under visible light and ultraviolet light (the shading control group was wrapped in tin foil) in closed dish, and meanwhile, the crystal form A was placed under accelerated stability conditions (60° C./75% RH, wrapped in a parafilm with 5 to 10 small holes) for 1 and 2 months, and under intermediate stability conditions (40° C./75% RH, wrapped in a parafilm with 5 to 10 small holes) for 1, 2 and 3 months. The samples after placement were characterized by XRPD to detect the change of the crystal form.

Chain of human acetyl-CoA carboxylase 2 (hACC2) (O00763 whole entry): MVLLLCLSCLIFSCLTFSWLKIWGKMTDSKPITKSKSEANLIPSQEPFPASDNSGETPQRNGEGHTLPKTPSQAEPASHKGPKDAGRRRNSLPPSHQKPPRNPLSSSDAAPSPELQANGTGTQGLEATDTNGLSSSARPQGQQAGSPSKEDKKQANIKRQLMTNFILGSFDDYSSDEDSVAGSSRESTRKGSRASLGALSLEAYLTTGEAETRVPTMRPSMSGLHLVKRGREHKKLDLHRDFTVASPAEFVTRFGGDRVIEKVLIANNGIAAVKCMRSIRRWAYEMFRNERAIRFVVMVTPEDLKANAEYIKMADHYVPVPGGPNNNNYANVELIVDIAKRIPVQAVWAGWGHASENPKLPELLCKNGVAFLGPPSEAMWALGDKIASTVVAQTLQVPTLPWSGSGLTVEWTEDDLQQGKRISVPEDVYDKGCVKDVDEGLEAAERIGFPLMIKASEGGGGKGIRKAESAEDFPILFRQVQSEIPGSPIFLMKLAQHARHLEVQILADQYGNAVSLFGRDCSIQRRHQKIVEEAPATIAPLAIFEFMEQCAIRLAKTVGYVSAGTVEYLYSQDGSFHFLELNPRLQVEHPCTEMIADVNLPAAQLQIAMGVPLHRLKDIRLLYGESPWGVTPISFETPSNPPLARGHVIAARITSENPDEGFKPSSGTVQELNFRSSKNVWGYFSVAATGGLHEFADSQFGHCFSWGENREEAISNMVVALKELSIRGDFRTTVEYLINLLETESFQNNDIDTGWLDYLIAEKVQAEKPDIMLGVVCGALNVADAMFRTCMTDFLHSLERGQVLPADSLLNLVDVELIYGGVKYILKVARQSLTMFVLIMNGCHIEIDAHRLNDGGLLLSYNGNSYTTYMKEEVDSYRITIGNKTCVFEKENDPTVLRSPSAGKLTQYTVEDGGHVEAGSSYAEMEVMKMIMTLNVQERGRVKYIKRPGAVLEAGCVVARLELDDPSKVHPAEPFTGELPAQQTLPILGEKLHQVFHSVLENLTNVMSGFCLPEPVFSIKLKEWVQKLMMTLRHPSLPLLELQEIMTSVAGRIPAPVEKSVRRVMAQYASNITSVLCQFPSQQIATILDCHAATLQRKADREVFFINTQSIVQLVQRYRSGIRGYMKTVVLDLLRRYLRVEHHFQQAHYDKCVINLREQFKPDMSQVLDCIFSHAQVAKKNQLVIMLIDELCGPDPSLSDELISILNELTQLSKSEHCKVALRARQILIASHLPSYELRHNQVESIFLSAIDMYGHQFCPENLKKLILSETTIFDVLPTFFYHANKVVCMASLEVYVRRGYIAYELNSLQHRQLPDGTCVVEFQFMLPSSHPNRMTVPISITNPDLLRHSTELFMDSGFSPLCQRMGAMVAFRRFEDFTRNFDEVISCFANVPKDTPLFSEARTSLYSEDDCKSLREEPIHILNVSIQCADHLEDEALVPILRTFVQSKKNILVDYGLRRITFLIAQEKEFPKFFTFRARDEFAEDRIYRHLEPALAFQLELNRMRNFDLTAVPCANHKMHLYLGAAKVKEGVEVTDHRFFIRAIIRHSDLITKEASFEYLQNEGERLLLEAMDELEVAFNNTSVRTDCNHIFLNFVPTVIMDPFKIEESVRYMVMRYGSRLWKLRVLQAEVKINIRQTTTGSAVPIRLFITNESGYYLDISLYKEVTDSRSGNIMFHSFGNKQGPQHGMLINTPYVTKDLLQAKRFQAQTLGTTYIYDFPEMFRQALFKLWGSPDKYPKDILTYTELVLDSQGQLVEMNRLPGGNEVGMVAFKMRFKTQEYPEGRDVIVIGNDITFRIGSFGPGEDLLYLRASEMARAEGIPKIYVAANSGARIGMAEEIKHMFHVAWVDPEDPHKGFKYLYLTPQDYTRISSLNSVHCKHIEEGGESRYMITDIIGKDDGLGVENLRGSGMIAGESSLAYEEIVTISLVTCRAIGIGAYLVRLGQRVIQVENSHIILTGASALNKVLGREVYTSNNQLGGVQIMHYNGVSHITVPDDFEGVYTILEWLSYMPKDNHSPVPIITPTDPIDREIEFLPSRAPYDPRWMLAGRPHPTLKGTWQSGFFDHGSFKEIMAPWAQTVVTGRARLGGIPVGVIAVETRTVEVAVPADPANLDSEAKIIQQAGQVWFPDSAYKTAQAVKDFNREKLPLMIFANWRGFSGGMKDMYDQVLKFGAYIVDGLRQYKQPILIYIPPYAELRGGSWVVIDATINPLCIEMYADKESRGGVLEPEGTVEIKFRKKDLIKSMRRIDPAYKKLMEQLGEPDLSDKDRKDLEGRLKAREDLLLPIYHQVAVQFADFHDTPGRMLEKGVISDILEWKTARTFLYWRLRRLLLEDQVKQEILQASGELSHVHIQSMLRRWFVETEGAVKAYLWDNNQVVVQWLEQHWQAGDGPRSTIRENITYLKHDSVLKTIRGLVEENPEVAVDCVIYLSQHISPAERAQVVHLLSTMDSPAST

SMILES	pIC50 [1]	pIC50 [2]	bioavailability ([3]; po, gavage 10 mg/kg vs IV 2.0 mg/kg, read-out: Bioavailability F)	clearance ([3]; IV 2.0 mg/kg and gavage 10 mg/kg study, route per parameter not given, read-out: Clearance rate)	AUC ([3]; IV 2.0 mg/kg and gavage 10 mg/kg study, route per parameter not given, read-out: Concentration integral AUC)	half-life ([3]; IV 2.0 mg/kg and gavage 10 mg/kg study, route per parameter not given, read-out: Half-life T1/2 (converted))	Efficacy on NAS versus reference compound [4]	Efficacy on fibrosis versus reference compound [4]	Change of the crystal form (XRPD) after placement [5]
COc1ccccc1[C@H](Cn1nc(C(C)(C)C(=O)O)c(=O)c2c(C)c(-c3ncco3)sc21)OC1CCOCC1 [Compound of formula (I)]	7.85	7.99	66.7%	27.3 mL/min/kg	7.21 µM·h	111 min	achieves the same efficacy as the reference compound at a higher dose	achieves the same efficacy as the reference compound at a higher dose	
COc1ccccc1[C@H](Cn1nc(C(C)(C)C(=O)O)c(=O)c2c(C)c(-c3ncco3)sc21)OC1CCOCC1 [crystal form A]									remains unchanged under all stability conditions
